Measured values: patent publication US20260374809A1, “COMPOUNDS USEFUL FOR THE TREATMENT AND/OR CARE OF THE SKIN, HAIR, NAILS AND/OR MUCOUS MEMBRANES” (Lubrizol Advanced Materials, Inc., priority 2022, published 2026)
Where a SMILES comes first, the peptide text is derived from it. [ ]: non-standard residue; d: D form. The star is where a group is joined. Palmitoyl = CCCCCCCCCCCCCCCC(=O)*

The compounds below were run on eyebrow (assay: In vivo eyebrow lifting effect in Caucasian volunteers (FrameScan image analysis)). Details: 28 days; result in words.
Design: species or system human
Protocol: The study was carried out for 28 days. Forty-six (46) volunteers aged between 40 and 65 years old were included in the study and were divided into two groups. The first group included 36 volunteers (31 women and 5 men) which applied the composition described in Example 5 on half face and placebo (same composition without peptide) on the other half, twice a day for 28 days. The second group of 10 volunteers (9 women and 1 man) used a microcurrent device (Nuface®) with an activator gel without active ingredients once a day. Volunteers using the microcurrent device were trained on how to apply the activator gel and how to use the device to standardize its application among them. […]
Volunteers' facial images were acquired at initial time and after 28 days of product application. The efficacy of the product was assessed by the measurement of a diagonal distance between eyelashes and eyebrows obtained from image analysis with FrameScan® software. The diagonal distance was calculated by drawing a horizontal line between a point at the start of the eyelashes and a point at the end of eyelashes (the eyelashes' line). […]
A study was carried out for 28 days for determining the lifting effect of Ac-Asp-Val-Tyr-Lys-NH2 (not according to the invention). […] The eyebrow lifting effect was determined as disclosed in Example 12.

`CC(=O)N[C@@H](CC(=O)O)C(=O)N[C@H](C(=O)N[C@@H](Cc1ccc(O)cc1)C(=O)N[C@@H](CCCCN)C(N)=O)C(C)C` [Ac-Asp-Val-Tyr-Lys-NH2] (Ac-DVYK-NH2) was tested, and the Lifting effect was “did not have a lifting effect”.

Each compound was assayed on Musclebind Like Protein 1 (MBNL1) (assay: MBNL1 protein expression in human skeletal muscle cells (hSKMC), HTRF). Details: 0.5 mg/ml, 48 hours, relative to basal control.
Assay type: cell-based
Protocol: Musclebind Like Protein 1 (MBNL1) in Human Skeletal Muscle Cells (hSKMC)
An increase of MBNL-1 in muscle cells helps maintaining the tone of facial skin muscles. Thus, compounds able to enhance MBNL-1 can be used as a good approach for cosmetic treatment of sagging facial appearance.
Human skeletal muscle cells (hSKMC) were cultured at 100,000 cells in T25 flasks with growth medium. After 4 days, cells reached around 80% of confluency and were seeded at 150,000 cells per well in 12-well plates in growth medium. Cells were incubated for 72 hours and then they were changed to differentiation medium and incubated during 48 hours. At the end of this period, cells were treated with defined peptides (0.5 mg/ml) and with medium alone for control conditions during 48 hours in differentiation medium. Cells were also treated with 2 mM of ketoprofen as a positive control.
After the incubation period, cells were lysed and frozen at −80 °C. For total protein quantification protein extract was measured by Bicinchoninic Acid (BCA) method. MBNL1 protein detection was performed by Homogeneous Time Resolved Fluorescence (HTRF) technology. Normalization of MBNL1 levels were performed by total protein quantification for each condition. Results are expressed as a relative MBNL1 protein level respect to control conditions. At least 3 replicates were carried out per condition.

Going from `CC(C)C[C@H](N)C(=O)N1CCC[C@H]1C(=O)N[C@H](C(=O)O)C(C)C` [PEP-12, H-Leu-Pro-Val-OH] (H-Leu-Pro-Val-OH) to `CC(C)C[C@H](N)C(=O)N[C@@H](C)C(=O)N[C@H](C(=O)N[C@H](C(=O)O)[C@@H](C)O)C(C)C` [PEP-6, H-Leu-Ala-Val-Thr-OH] (H-LAVT-OH), the “% MBNL1 vs Basal control” value falls from 177.8% to 157.0%.

Going from `CC(C)C[C@H](NC(=O)[C@@H]1CCCN1C(=O)[C@@H](N)CC(C)C)C(=O)N[C@H](C(=O)O)[C@@H](C)O` [PEP-10, H-Leu-Pro-Leu-Thr-OH] (H-LPLT-OH) to `CC(=O)N[C@@H](CC(C)C)C(=O)N1CCC[C@H]1C(=O)N[C@H](C(=O)N[C@H](C(N)=O)[C@@H](C)O)C(C)C` [PEP-5, Ac-Leu-Pro-Val-Thr-NH2] (Ac-LPVT-NH2), the “% MBNL1 vs Basal control” value falls from 222.0% to 213.7%.

`CC(=O)N[C@@H](CC(C)C)C(=O)N1CCC[C@H]1C(=O)N[C@H](C(=O)N[C@H](C(=O)O)[C@@H](C)O)C(C)C` [PEP-4, Ac-Leu-Pro-Val-Thr-OH] (Ac-LPVT-OH) and `CC(C)[C@H](N)C(=O)N1CCC[C@H]1C(=O)N[C@H](C(=O)N[C@H](C(=O)O)[C@@H](C)O)C(C)C` [PEP-8, H-Val-Pro-Val-Thr-OH] (H-VPVT-OH) are the same in “% MBNL1 vs Basal control” value: 131.3% for the first, 131.3% for the second.

First: H-ALPVT-OH [PEP-11, H-Ala-Leu-Pro-Val-Thr-OH]
Second: CC(C)C[C@H](N)C(=O)NCC(=O)N[C@H](C(=O)N[C@H](C(=O)O)[C@@H](C)O)C(C)C [PEP-9, H-Leu-Gly-Val-Thr-OH] (H-LGVT-OH)
The “% MBNL1 vs Basal control” value of the first is higher: 259.0% for the first, 122.4% for the second.

Going from `CC(C)C[C@H](N)C(=O)N1CCC[C@H]1C(=O)N[C@H](C(=O)N[C@H](C(N)=O)[C@@H](C)O)C(C)C` [PEP-2, H-Leu-Pro-Val-Thr-NH2] (H-LPVT-NH2) to `CCCCCCCCCCCCCCCC(=O)N[C@@H](CC(C)C)C(=O)N1CCC[C@H]1C(=O)N[C@H](C(=O)N[C@H](C(=O)O)[C@@H](C)O)C(C)C` [PEP-3, Palm-Leu-Pro-Val-Thr-OH] (Palmitoyl-LPVT-OH), the “% MBNL1 vs Basal control” value falls from 183.2% to 160.4%.

Compared with `CC[C@H](C)[C@H](N)C(=O)N1CCC[C@H]1C(=O)N[C@H](C(=O)N[C@H](C(=O)O)[C@@H](C)O)[C@@H](C)CC` [PEP-13, H-Ile-Pro-Ile-Thr-OH] (H-IPIT-OH), `CC[C@H](C)[C@H](NC(=O)[C@@H]1CCCN1C(=O)[C@@H](N)CC(C)C)C(=O)N[C@H](C(=O)O)[C@@H](C)O` [PEP-7, H-Leu-Pro-Ile-Thr-OH] (H-LPIT-OH) is higher in “% MBNL1 vs Basal control” value: 133.3% for the first, 156.3% for the second.

Each compound was assayed on Human dermal fibroblast (HDF) (assay: Collagen contraction assay with human dermal fibroblasts in collagen gel). Details: 0.01 mg/ml; basal control = 100, positive control with MES = 159.7.
Assay type: cell-based
Description: It is known that a remarkable change in the mechanical properties of the skin with aging is due to reduced contractile capacity as well as reduced migration activity of fibroblasts. Healthy fibroblasts induce contraction of the collagen network through physical interactions with collagen fibers. The collagen network is essential for maintaining the firmness of the skin. The collagen contraction assay is a well-known experimental approach to measuring the cell-induced contraction of the extracellular matrix. In this assay, the capacity of fibroblasts, embedded in a collagen-based gel, to reduce the gel diameter is evaluated.
By improving the contractile forces, the mechanical tension can be improved, which can be associated to “lifting” effect at the scale of fibroblasts.
The microcurrent system was built by coupling gold electrodes (in order to avoid medium oxidation leading to cell death when current goes through) to opposite sides of 60 mm Petri dishes (separated by 4 cm). When a voltage is applied, an electric field generates between opposite positive and negative poles and current passes through the culture. During the stimulation time (2 hours), each of the 60 mm Petri dishes is connected to a voltage source that allows regulating the amount of current that passes through each of them. For these experiments, a […] current (which corresponds to approx. 67 mV/mm) was used.
Human dermal fibroblast (HDF) cell culture and expansion: Cells were thawed in T75 flasks and the growth medium was changed every 2 days of cell culture. After 7 days, cells were expanded to obtain a total amount of 7×10^6 cells to be used in the experiments.
Once finished the expansion, cultures are trypsinized and seeded at 3×10^5 cells/60 mm Petri up to a total of 10 dishes per replicate. These ten dishes correspond to one experiment (Control/-MES vs+MES) at a specific concentration. Peptide treatment was performed at 0.01 mg/ml.
After an overnight (O/N) incubation to allow cell attachment, each Petri dish is treated at the corresponding concentration with 4 ml of specific medium for a total of 24 hours in both conditions (without MES and with MES). Peptide treatment on the dishes that are not stimulated with microcurrent is initiated 2 hours in advance, and their passage into 3D cultures occurs at the same time as the microcurrent stimulation of the other dishes. […]
Each 3D culture is prepared by mixing collagen solution with the culture medium corresponding to each of the conditions (without peptide or with peptide). […] Images of collagen gel diameter are taken of each well at 24 hours post detachment and analyzed by ImageJ. […]
[formula] • An initial area is stablished. […] Area t=0 gel […]1.86 cm^2 (Area of a well in a 24-well plate) • Quantification of Area at t=x; Ax. […]

First: CSCC[C@H](NC(=O)[C@@H](CCC(N)=O)NC(=O)[C@H](CCCNC(=N)N)NC(=O)[C@H](CCCNC(=N)N)NC(C)=O)C(=O)N[C@@H](CCC(=O)O)C(=O)N[C@@H](CCC(=O)O)C(N)=O [Ac-Arg-Arg-D-Gln-Met-Glu-Glu-NH2] (Ac-RR[dQ]MEE-NH2)
Second: H-ALKPNT-NH2 [H-Ala-Leu-Lys-Pro-Asn-Thr-NH2]
The “Collagen contraction, MEAN (comparative peptides)” value of the first is lower: 82.5 for the first, 101.4 for the second.

With `CC(=O)N[C@@H](CC(=O)O)C(=O)N[C@H](C(=O)N[C@@H](Cc1ccc(O)cc1)C(=O)N[C@@H](CCCCN)C(N)=O)C(C)C` [Ac-Asp-Val-Tyr-Lys-NH2] (Ac-DVYK-NH2) the “Collagen contraction, MEAN (comparative peptides)” value was 91.6.
